Assay results: patent publication US20230279001A1, “IMIDAZO[1,2-A]PYRIDINE COMPOUNDS FOR THE TREATMENT OF AUTOIMMUNE DISEASE” (Hoffmann-La Roche Inc., priority 2020, published 2023)
Converted amounts (≈) assume the structure as drawn.

System: Balb/c 3T3 mouse fibroblasts
Test: 3T3 in vitro phototoxicity assay (Neutral Red uptake)
Assay type: cell-based
Details: 3T3 fibroblasts
From the text: Phototoxicity is defined as a toxic response that is elicited after the first exposure of the skin to certain chemicals and subsequent exposure to light, or that is induced similarly by skin irradiation after systemic administration of a chemical substance. The assay used in this study is designed to detect the phototoxic potential of a chemical by using a simple in vitro cytotoxicity assay with Balb/c 3T3 mouse fibroblasts. The principle of this test is a comparison of the cytotoxicity of a chemical when tested with and without exposure to a non-toxic dose of UVA-light. Cytotoxicity is expressed as a dose dependent reduction of the growth rate of cells as determined by uptake of the vital dye Neutral Red one day after treatment. […]
For this study the Neutral Red uptake (NRU) assay of Borenfreund and Puerner (Borenfreund, E, Puerner J A. Toxicity determined in vitro by morphological alterations and Neutral Red absorption. Toxicology Lett. 1985; 24:119-124) modified according to INVITTOX protocol No 78 (ERGATT/FRAME data bank of in vitro techniques in toxicology. INVITTOX PROTOCOL No 78. 3T3 NRU Phototoxicity Assay. March 1994) has been adapted to examine a possible phototoxic potential of the test item. […]
For each test item the microtiter plates were prepared according to Table 6. […] UV flux was measured with a UV-meter (Dr. Gröbel RM21). […]

For `CCc1nc(N2CCC(N3CC4(CNCCO4)C3)CC2)ccc1-c1cc(C)c2nccn2c1` [Example 14, 2-[1-[6-ethyl-5-(8-methylimidazo[1,2-a]pyridin-6-yl)-2-pyridyl]-4-piperidyl]-5-oxa-2,8-diazaspiro[3.5]nonane], the Phototoxicity factor (Factor=IC50(−UV)/IC50(+UV)) was 1 and the IC50 (Mus musculus, BALB/c3T3, light or radiation study, approx. 5 J/cm^2 UVA light, Neutral Red uptake) was 100 µg/mL (≈ 224 µM).
